In patent US10495648B2, “Methods of treating liver fibrosis” (GILEAD SCIENCES, INC., priority 2017, dated 2019):
Where “and” joins values, the source holds several entries; their conditions need not be identical. Identical values can stand only once.

How the values were obtained:
Assay type in all cases: in vivo, human
[1] = system: plasma miRNAs; experiment: Plasma miRNA qPCR in phase 2 study GS-US-384-1497, miRNAs modulated by SEL treatment
From the text: Plasma samples were obtained from 72 subjects enrolled in the GS-US-384-1497 Gilead study. The study is a phase 2 study evaluating the safety, tolerability, and efficacy of selonsertib (ASK1 inhibitor) alone or in combination with simtuzumab (SIM) in subjects with Nonalcoholic Steatohepatitis (NASH) and fibrosis stages F2-F3. The inclusion criteria included patients with metabolic syndrome, serum ALT≥1.5×ULN and ≤5×ULN, and Fibroscan that measures liver stiffness: ≥7 kPa and <12 kPa, or NAS score greater ≥5 with fibrosis stage 2 to 3.
Total RNA samples were isolated and 301 selected miRNA were measured by qPCR. MiRNA expression levels were normalized using the global mean of all expressed miRNAs. Differential expression analyses were performed using limma method; p-values in multiple comparisons were corrected using the Benjamini-Hochberg method. Spearman correlations were calculated between miRNA expression with fibrosis stage and NAS score at baseline and at week 24.
11 miRNAs (hsa-miR-505-3p, hsa-miR-29a-3p, hsa-miR-215-5p, hsa-miR-148a-3p, hsa-miR-99a-5p, hsa-miR-885-5p, hsa-miR-122-5p, hsa-miR-34a-5p, hsa-miR-365a-3p, hsa-miR-194-5p, hsa-miR-155-5p) with nominal […] were modulated by SEL treatment, see Table 2 below.

[2] = system: plasma miRs; experiment: Plasma miR qPCR in GS-US-321-0105 and GS-US-321-0106, association with SIM treatment
Procedure: Screen failed subjects were included in the analysis to ensure the miRs were analyzed in all the fibrosis stages. The samples analyzed after quality control, which excluded samples that were hemolyzed and samples that had overall low expression of miRs.
Plasma miRs were isolated with spike-in controls using total RNA isolation kit (Exiqon, Denmark). Complementary DNA was synthesized with spike-in control using the Exiqon cDNA synthesis kit and selected plasma miRs (n=157) were measured at BL, W12, and W24 by qPCR using the Exiqon platform (Covance, USA). For the 1497 study, 301 miRs were measured but only 132 miRs were expressed therefore for the 105/106 studies we measured the 132 miRs with 25 additional miRs were measured for the 105/106 study. The data was normalized using Global fit method of normalization.

[3] = system: NASH patients; experiment: Safety and efficacy of SIM in NASH patients, studies GS-US-321-0105 and GS-US-321-0106 (fibrosis)
Procedure: The miR analysis was expanded to using GS-US-321-0105 and GS-US-321-0106 studies where biopsy proven samples were used from NASH patients. These studies had evaluated the safety and efficacy of Simtuzamab (SIM) in NASH patients. […] It was observed that 20% of the samples had fibrosis improvement, 20% fibrosis […] and for the rest of the subjects the fibrosis remained unchanged. As these samples represented the natural history of fibrosis changes, miR expression was analyzed in these samples.
Subjects in GS-US-384-1497 phase 2 trials were enrolled with F2-3 Stages of fibrosis and subjects in GS-US-321-0105 phase 2 trial were enrolled with F3 Stage of fibrosis and GS-US-321-0106 phase 2 trial subjects were enrolled with F4 stage of fibrosis.

Cc1cc(F)c(C(=O)Nc2cccc(-c3nncn3C(C)C)n2)cc1-n1cnc(C2CC2)c1 [SEL, selonsertib]
Fold Change miR-29a-3p ([1]; 6 mg SEL ± SIM, week 24): −1.23
Fold Change miR-34a-5p ([1]; 6 mg SEL ± SIM, week 24): −1.54
Fold Change miR-99a-5p ([1]; 6 mg SEL ± SIM, week 24): −1.33
Fold Change miR-122-5p ([1]; 6 mg SEL ± SIM, week 24): −1.42
Fold Change miR-148a-3p ([1]; 6 mg SEL ± SIM, week 24): −1.28
Fold Change miR-194-5p ([1]; 6 mg SEL ± SIM, week 24): −1.30
Fold Change miR-215-5p ([1]; 6 mg SEL ± SIM, week 24): −1.27
Fold Change miR-365a-3p ([1]; 6 mg SEL ± SIM, week 24): −1.65
Fold Change miR-505-3p ([1]; 6 mg SEL ± SIM, week 24): −1.24
Fold Change miR-885-5p ([1]; 6 mg SEL ± SIM, week 24): −1.37
Fold Change miR-34a-5p ([1]; 18 mg SEL ± SIM, week 24): −1.33
Fold Change miR-99a-5p ([1]; 18 mg SEL ± SIM, week 24): −1.25
Fold Change miR-155-5p ([1]; 18 mg SEL ± SIM, week 24): 1.33
Fold Change miR-885-5p ([1]; 18 mg SEL ± SIM, week 24): −1.56
number of miRNAs modulated by SEL treatment ([1]; GS-US-384-1497, week 24): 11 and 12

B1: simtuzumab (antibody, chains of the INN, looked up, V domains shown)
VH: QVQLVQSGAEVKKPGASVKVSCKASGYAFTYYLIEWVRQAPGQGLEWIGVINPGSGGTNYNEKFKGRATITADKSTSTAYMELSSLRSEDTAVYFCARNWMNFDYWGQGTTVTVSS
VL: DIVMTQTPLSLSVTPGQPASISCRSSKSLLHSNGNTYLYWFLQKPGQSPQFLIYRMSNLASGVPDRFSGSGSGTDFTLKISRVEAEDVGVYYCMQHLEYPYTFGGGTKVEIK
miRs associated with SIM treatment [2]: no miRs associated with SIM treatment
effect on fibrosis [3]: ineffective at reducing fibrosis
